Source: EP3325480B1, “5-SUBSTITUTED-7-[4-(SUBSTITUTED) BENZYL]AMINO-3-ISOPROPYLPYRAZOLO (4,3-D) PYRIMIDINES AS MEDICAMENTS” (Ustav experimentalni botaniky AV CR, v.v.i., priority 2015, dated 2017)

The molecules below were run on neutrophils (assay: Measurement of neutrophil apoptosis (Annexin V FITC / propidium iodide, flow cytometry)). Conditions: 10 nM, 8 h, isolated human neutrophils, Annexin V positive / PI negative cells taken as apoptotic.
Format: cell-based
Excerpt: The neutrophils were isolated from the peripheral blood of healthy human donors as described previously (Afford et al 1992). Briefly, blood was collected into tubes containing EDTA followed by usage of 2% dextran solution for sedimentation of erythrocytes. The neutrophils were then isolated from leukocyte layer using a discontinuous Percoll density gradient centrifugation (Sigma- Aldrich, Poole, UK) and resuspended in RPMI 1640 medium (Sigma- Aldrich) supplemented with 10% heat-inactivated fetal bovine serum (Sera Laboratories International, Bolney, UK), 2 mM glutamine, 100 U/ml penicillin and 100 µg/ml streptomycin (Sigma-Aldrich). The purity of isolated neutrophils was assessed by Giemsa staining (Diff-Quick, Baxter Healthcare, UK) and light microscopy and was routinely greater than 97%. The neutrophils were then cultured in the presence of novel compounds (single concentration of 10 nM, or several increasing concentrations ranging from 10 nM to 1 µM) and other stimulating factors for 8 h.
For evaluation of early apoptosis, neutrophils were double stained with anti-Annexin V FITC-conjugated antibody (BD Pharmingen) binding extracellular phosphatidylserine and propidium iodide detecting late apoptotic and necrotic cells. After appropriate treatment, cells were washed with PBS and then resuspended in 100 µl of Annexin V buffer (10 mM HEPES, pH 7.4; 140 mM NaCl; 2.5 mM CaCl2). 1 µl of anti-Annexin V FITC-conjugated antibody was added and cells were then incubated at room temperature for 10 minutes followed by addition of propidium iodide at final concentration of 5 µg/ml. Fluorescence was analyzed by flow cytometry (BD Accuri C6 Flow Cytometer, Accuri Cytometers Inc.) with Annexin V positive / PI negative cells taken as apoptotic.

**Q.** How did the “% of apoptotic cells” value turn out when `CC(CCO)Nc1nc(NCc2ccc(-c3cccs3)cc2)c2[nH]nc(C(C)C)c2n1` (racemic) [compound 44] was run?
**A.** The value was 38%.

**Q.** With `CC(C)c1n[nH]c2c(Cl)nc(S(C)(=O)=O)nc12` [compound 1, 7-Chloro-3-isopropyl-5-methylsulfonyl-1H-pyrazolo[4,3-d]pyrimidine] as the molecule, how does the “% of apoptotic cells” value read?
**A.** The value was 32%.

**Q.** For `CC(C)c1n[nH]c2c(NCc3ccc(-c4ccco4)cc3)nc(S(C)(=O)=O)nc12` [compound 2, 3-Isopropyl-5-methylsulfonyl-7-[4-(furan-2-yl)benzyl]amino-1H-pyrazolo[4,3-d]pyrimidine], which “% of apoptotic cells” value is on record?
**A.** Its value is 41%.

**Q.** Which “% of apoptotic cells” value does the source give for `CC(C)c1n[nH]c2c(NCc3ccc(-c4cccs4)cc3)nc(S(C)(=O)=O)nc12` [compound 3, 3-Isopropyl-5-methylsulfonyl-7-[4-(thiophen-2-yl)benzyl]amino-1H-pyrazolo[4,3-d]pyrimidine] here?
**A.** The value was 58%.

**Q.** How did the “% of apoptotic cells” value turn out when `CC(C)c1n[nH]c2c(NCc3ccc(-n4cccn4)cc3)nc(S(C)(=O)=O)nc12` [compound 6, 3-Isopropyl-5-methylsulfonyl-7-[4-(1H-pyrazol-1-yl)benzyl]amino-1H-pyrazolo[4,3-d]pyrimidine] was run?
**A.** Its value is 36%.

**Q.** With `CC(C)c1n[nH]c2c(NCc3ccc(-c4ccco4)cc3)nc(NCCO)nc12` [compound 7] as the molecule, how does the “% of apoptotic cells” value read?
**A.** The value was 47%.

**Q.** Which “% of apoptotic cells” value does the source give for `CC(C)c1n[nH]c2c(NCc3ccc(-c4ccco4)cc3)nc(NCC(O)CN)nc12` (stereo not shown) [compound 15, 3-Isopropyl-5-(3-amino-2-hydroxypropyl)amino-7-[4-(furan-2-yl)benzyl]amino-1H-pyrazolo[4,3-d]pyrimidine] here?
**A.** The value was 52%.

**Q.** `CC(C)c1n[nH]c2c(NCc3ccc(-c4ccco4)cc3)nc(NCCCCCCN)nc12` [compound 30] was tested. Which “% of apoptotic cells” value did it give?
**A.** Its value is 39%.

**Q.** `CC(C)c1n[nH]c2c(NCc3ccc(-c4ccco4)cc3)nc(NCC(C)(C)O)nc12` [compound 31, 3-Isopropyl-5-(2-hydroxy-2-methylpropyl)amino-7-[4-(furan-2-yl)benzyl]amino-1H-pyrazolo[4,3-d]pyrimidine] was tested. Which “% of apoptotic cells” value did it give?
**A.** Its value is 50%.

**Q.** `CC(C)c1n[nH]c2c(NCc3ccc(-c4cccs4)cc3)nc(NCC(C)(C)O)nc12` [compound 32, 3-Isopropyl-5-(2-hydroxy-2-methylpropyl)amino-7-[4-(thiophen-2-yl)benzyl]amino-1H-pyrazolo[4,3-d]pyrimidine] was tested. Which “% of apoptotic cells” value did it give?
**A.** The value was 48%.

**Q.** For `CC(C)c1n[nH]c2c(NCc3ccc(-c4cccs4)cc3)nc(NCCC(C)(C)O)nc12` [compound 33], which “% of apoptotic cells” value is on record?
**A.** The value was 36%.

**Q.** With `CC(C)c1n[nH]c2c(NCc3ccc(-c4cccs4)cc3)nc(NCC(O)CO)nc12` (stereo not shown) [compound 34] as the molecule, how does the “% of apoptotic cells” value read?
**A.** Its value is 52%.

**Q.** `CC(C)c1n[nH]c2c(NCc3ccc(-c4cccs4)cc3)nc(NC[C@H](C)O)nc12` [compound 42] was tested. Which “% of apoptotic cells” value did it give?
**A.** Its value is 57%.

**Q.** How did the “% of apoptotic cells” value turn out when `CC(C)c1n[nH]c2c(NCc3ccc(-c4cccs4)cc3)nc(N[C@H](C)CCO)nc12` [compound 45] was run?
**A.** Its value is 33%.

**Q.** How did the “% of apoptotic cells” value turn out when `CC(C)c1n[nH]c2c(NCc3ccc(-n4cccn4)cc3)nc(NCCCCN)nc12` [compound 58] was run?
**A.** Its value is 44%.

**Q.** `CC(C)c1n[nH]c2c(NCc3ccc(-n4cccn4)cc3)nc(NCCCCCN)nc12` [compound 59] was tested. Which “% of apoptotic cells” value did it give?
**A.** The value was 49%.

**Q.** Which “% of apoptotic cells” value does the source give for `CC(C)c1n[nH]c2c(NCc3ccc(-n4cccn4)cc3)nc(NCCCCCCN)nc12` [compound 60] here?
**A.** The value was 60%.

**Q.** Which “% of apoptotic cells” value does the source give for `CC(C)c1n[nH]c2c(NCc3ccc(-n4cccn4)cc3)nc(NCC(O)CN)nc12` (stereo not shown) [compound 61, 3-Isopropyl-5-(3-amino-2-hydroxypropyl)amino-7-[4-(1H-pyrazol-1-yl)benzyl]amino-1H-pyrazolo[4,3-d]pyrimidine] here?
**A.** Its value is 40%.

**Q.** For `CCN(CC)CCNc1nc(NCc2ccc(N3CCCC3)cc2)c2[nH]nc(C(C)C)c2n1` [compound 63], which “% of apoptotic cells” value is on record?
**A.** The value was 39%.

**Q.** `CCN(CC)C(C)CCNc1nc(NCc2ccc(N3CCCC3)cc2)c2[nH]nc(C(C)C)c2n1` (stereo not shown) [compound 65] was tested. Which “% of apoptotic cells” value did it give?
**A.** The value was 56%.

**Q.** How did the “% of apoptotic cells” value turn out when `CC(C)c1n[nH]c2c(NCc3ccc(N4CCCC4)cc3)nc(NCC(C)(C)O)nc12` [compound 66] was run?
**A.** Its value is 34%.

What follows are molecules tested on neutrophils (assay: Superoxide generation assay (luminol-based chemiluminescent assay, fMLP stimulus)). Conditions: isolated human neutrophils, GM-CSF present, compound 1 h, fMLP 2.5 µM, luminol 100 µM (Figure 2).
Format: cell-based
Method: Isolated human neutrophils were incubated in the presence of prosurvival factor GM-CSF with or without the compound at indicated concentrations for 1 h.
Levels of reactive oxygen species (ROS) generated by neutrophils were measured using a luminol-based chemiluminescent assay (Gyllenhammar 1987). After treatment, neutrophils were resuspended in Hank's Balanced Salt Solution (HBSS) containing calcium and magnesium (Gibco) and transferred to opaque 96 well plates (Greiner Bio-One GmbH). Luminol was then added to each well at final concentration of 100 µM followed by a measuring of chemiluminescence in response to the stimulus fMLP (2.5 µM) at 1 min intervals for 30 min by means of a luminometer (Centro LB 960, Berthold Technologies, Bad Wildbad, Germany).

**Q.** How did the “neutrophil oxygen radical production induced by fMLP” value turn out when `CC(C)c1n[nH]c2c(NCc3ccc(-c4ccco4)cc3)nc(NCC(O)CN)nc12` (stereo not shown) [compound 15, 3-Isopropyl-5-(3-amino-2-hydroxypropyl)amino-7-[4-(furan-2-yl)benzyl]amino-1H-pyrazolo[4,3-d]pyrimidine] was run?
**A.** Its value is “inhibits”.
